How the values were obtained:
[1] = tested on: SJSA-1 human osteosarcoma; experiment: In vivo efficacy, SJSA-1 xenograft model; design: species or system mouse; details: data not shown
Method: (§1) A program of in vivo efficacy studies was performed to assess the activity of SRA737 in combination with genotoxic chemotherapy and targeted agents, and as monotherapy.
(§2) One of these models also carried a MYCN amplification. A fourth HGSOC PDX model with partial resistance to PARPi was also sensitive to high dose SRA737 monotherapy.

[2] = tested on: Eμ-Myc model of B-cell lymphoma; experiment: In vivo efficacy, Eμ-Myc model; design: species or system mouse; details: data not shown
Method: as §1, §2

Single dose PK, monkey = format: in vivo
Method: (§3) The PK of SRA737 have been determined in the mouse, rat, dog and monkey following oral and IV administration (Table 3). […] An acceptable terminal elimination t1/2 was also observed in each species. […] The plasma protein binding of SRA737 at 1 and 10 μM was examined in mouse, minipig, monkey and human plasma using ultracentrifugation and in dog plasma (10 μM) using rapid equilibrium dialysis.

[3] = Plasma protein binding, rapid equilibrium dialysis, dog; format: in vitro ADME; details: 10 μM
Method: as §3

[4] = Three-cycle combination toxicity study with gemcitabine and cisplatin, mouse; format: in vivo; details: mice; SRA737 with IV gemcitabine and cisplatin, intermittent schedule over 18 days
Source text: Clinical combination of SRA737 and gemcitabine in some cases therefore elicited exacerbated hematological and GI toxicities.

[5] = Excretion in urine and feces, rats; format: in vivo; details: rat; over 24 hours
Method: The excretion of SRA737 has been studied in mice and rats administered SRA737 at either 5 mg/kg IV or 10 mg/kg orally. Urine and feces were collected for a 24-hour period after dosing. In mice, renal excretion of intact SRA737 was consistently low (less than 10% of dose) after both oral and IV administration. Following IV administration of SRA737, less than 8% of the dose was recovered as intact drug in the feces while after oral administration this figure was less than 3%. Excretion of intact SRA737 was lower in the rat than in the mouse with <1% of dose excreted renally over 24 hours and less than 1.5% of dose excreted into the feces over 24 hours.

Single dose PK, dog = format: in vivo
Method: as §3

minipig hepatocytes = experiment: Stability in cryopreserved hepatocytes, minipig; format: in vitro ADME; details: 10 μM, after 4 hours of incubation
Method: (§4) The formation of SRA737-related metabolites was determined in cryopreserved hepatocytes from human, mouse, rat, dog, minipig and monkey samples after incubation with SRA737 at a nominal concentration of 10 μM for up to 4 hours. […] In the human hepatocyte preparation, approximately 67% of the parent remained after 4 hours of incubation compared to 75% and 7% in the rat and minipig preparations, respectively. Eight human SRA737 metabolites were observed. All SRA737 metabolites formed by human hepatocytes were also formed by monkey hepatocytes. Six metabolites were present at equal or greater abundance in the monkey.

[6] = Plasma protein binding, ultracentrifugation, monkey; format: in vitro ADME; details: for Percentage Bound / Percentage Free: Monkey plasma
Method: as §3

CYP 2A6 = CYP 2A6 (Homo sapiens, UniProt P11509); experiment: CYP inhibition, 2A6; format: in vitro ADME; details: highest concentration investigated
Sequence of CYP 2A6 (P11509 whole entry): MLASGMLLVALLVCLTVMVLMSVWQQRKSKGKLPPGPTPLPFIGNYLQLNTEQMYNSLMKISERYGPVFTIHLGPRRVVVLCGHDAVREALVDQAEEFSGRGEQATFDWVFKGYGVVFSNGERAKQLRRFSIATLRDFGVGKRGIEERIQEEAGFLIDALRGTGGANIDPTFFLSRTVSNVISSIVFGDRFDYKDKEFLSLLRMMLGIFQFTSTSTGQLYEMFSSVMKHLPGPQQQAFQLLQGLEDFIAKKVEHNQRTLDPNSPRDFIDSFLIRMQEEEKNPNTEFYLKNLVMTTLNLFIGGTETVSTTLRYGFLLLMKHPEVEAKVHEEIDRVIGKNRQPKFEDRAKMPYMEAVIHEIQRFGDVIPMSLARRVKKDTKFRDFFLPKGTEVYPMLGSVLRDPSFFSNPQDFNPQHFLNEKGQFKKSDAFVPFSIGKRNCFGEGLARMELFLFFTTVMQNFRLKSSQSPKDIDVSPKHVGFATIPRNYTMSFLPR

MC38 = experiment: In vivo efficacy, MC38 syngeneic mouse model; details: in combination with a PD1/PD-L1 inhibitor; data not shown
Method: as §1, §2

[7] = tested on: cryopreserved hepatocytes; experiment: Rank order of stability in cryopreserved hepatocytes across species; format: in vitro ADME, human, mouse, rat, dog, minipig and monkey; details: 10 μM, up to 4 hours
Method: as §4

[8] = tested on: HGSOC PDX model with partial resistance to PARPi; experiment: In vivo efficacy, HGSOC PDX model with partial resistance to PARPi; design: species or system mouse; details: high dose SRA737 monotherapy
Method: as §1, §2

MDA-MB-231 model of TNBC = experiment: In vivo efficacy, MDA-MB-231 model; design: species or system mouse; details: data not shown
Method: as §1, §2

[9] = tested on: HGSOC PDX models harboring CCNE1 amplifications accompanied by TP53 mutations; experiment: In vivo efficacy, HGSOC PDX models with CCNE1 amplifications; design: species or system mouse; details: single agent; several models; data not shown
Method: as §1, §2

[10] = tested on: patient-derived bladder carcinoma; experiment: In vivo efficacy, patient-derived bladder carcinoma model; design: species or system mouse; details: in combination with standard-dose gemcitabine; data not shown
Method: as §1, §2

[11] = GLP 28-day repeat oral dose toxicity and toxicokinetics, minipig; format: in vivo
Source text: Reference source not found.6.

[12] = in vivo, Monkey IV 1 mg/kg single dose
[13] = in vivo, Monkey oral 2 mg/kg single dose
[14] = in vivo, Monkey oral 10 mg/kg single dose
[15] = in vivo, Dog IV 1 mg/kg single dose
[16] = in vivo, Dog oral 5 mg/kg single dose
[17] = in vivo, po, Minipig Female, 10 mg/kg/day (HNSTD), daily dosing for 28 days
[18] = in vivo, po, Minipig Female, 40 mg/kg/day, daily dosing for 28 days
[19] = in vivo, po, Minipig Female, 75 mg/kg/day, daily dosing for 28 days
[20] = in vivo, po, Minipig Male, 10 mg/kg/day (HNSTD), daily dosing for 28 days
[21] = in vivo, po, Minipig Male, 40 mg/kg/day, daily dosing for 28 days

Question: With `N#Cc1cnc(Nc2cc(NCC3CNCCO3)c(C(F)(F)F)cn2)cn1` (stereo not drawn) [SRA737, 5-[[4-[[morpholin-2-yl]methylamino]-5-(trifluoromethyl)-2-pyridyl]amino]pyrazine-2-carbonitrile] as the compound, how does the antitumor activity ([1]; in combination with standard-dose gemcitabine) read?
Answer: Its antitumor activity is “Significant, dose-dependent antitumor activity”.

Question: What about the synergy ([1]; with low-dose gemcitabine) of the same compound?
Answer: Its synergy is “Synergy”.

Question: What about the single agent efficacy [2] of the same compound?
Answer: The single agent efficacy was “single agent efficacy”.

Question: What about the Foral (Single dose PK, monkey; Monkey oral 2 mg/kg single dose) of the same compound?
Answer: Its Foral is 90%.

Question: What about the Foral (Single dose PK, monkey; Monkey oral 10 mg/kg single dose) of the same compound?
Answer: Its Foral is 104%.

Question: And the AUC(0-t) (Single dose PK, monkey; [12])?
Answer: Its AUC(0-t) is 1520 ng·h/mL.

Question: What about the half-life (Single dose PK, monkey; [12]) of the same compound?
Answer: The half-life was 5.3 h.

Question: And the AUC(0-t) (Single dose PK, monkey; [13])?
Answer: The AUC(0-t) was 2730 ng·h/mL.

Question: And the Cmax (Single dose PK, monkey; [13])?
Answer: The Cmax was 500 ng/mL.

Question: What about the Tmax (Single dose PK, monkey; [13]) of the same compound?
Answer: The Tmax was 1 to 2 h.

Question: And the half-life (Single dose PK, monkey; [13])?
Answer: The half-life was 5 h.

Question: What about the AUC(0-t) (Single dose PK, monkey; [14]) of the same compound?
Answer: The AUC(0-t) was 15800 ng·h/mL.

Question: And the Cmax (Single dose PK, monkey; [14])?
Answer: The Cmax was 2640 ng/mL.

Question: And the Tmax (Single dose PK, monkey; [14])?
Answer: Its Tmax is 2 to 4 h.

Question: What about the half-life (Single dose PK, monkey; [14]) of the same compound?
Answer: The half-life was 5.1 h.

Question: And the bioavailability (Single dose PK, monkey; in vivo, monkey, oral 2 and 10 mg/kg, read-out: absolute oral bioavailability (% F))?
Answer: Its bioavailability is 90 to 104%.

Question: And the “Percentage Bound” value [3]?
Answer: The value was 68.8%.

Question: What about the “Percentage Free” value [3] of the same compound?
Answer: Its value is 31.2%.

Question: And the “findings exacerbated by SRA737 over the cisplatin/gemcitabine control group” value [4]?
Answer: The value was “reversible marrow toxicity, consequent splenomegaly, and the high-dose intestinal observations”.

Question: And the “intact SRA737 excreted into the feces” value [5]?
Answer: The value was “less than 1.5 % of dose”.

Question: What about the “intact SRA737 excreted renally” value [5] of the same compound?
Answer: The value was < 1 % of dose.

Question: What about the Foral (Single dose PK, dog; Dog oral 5 mg/kg single dose) of the same compound?
Answer: Its Foral is 86%.

Question: What about the AUC(0-t) (Single dose PK, dog; [15]) of the same compound?
Answer: Its AUC(0-t) is 200 ng·h/mL.

Question: And the half-life (Single dose PK, dog; [15])?
Answer: The half-life was 2.8 h.

Question: And the AUC(0-t) (Single dose PK, dog; [16])?
Answer: The AUC(0-t) was 850 ng·h/mL.

Question: And the Cmax (Single dose PK, dog; [16])?
Answer: The Cmax was 130 ng/mL.

Question: And the Tmax (Single dose PK, dog; [16])?
Answer: The Tmax was 1 to 3 h.

Question: What about the half-life (Single dose PK, dog; [16]) of the same compound?
Answer: Its half-life is 3.5 h.

Question: And the parent remained (minipig hepatocytes)?
Answer: Its parent remained is 7%.

Question: And the “Percentage Bound” value ([6]; 1 μM)?
Answer: The value was 88.8%.

Question: And the “Percentage Free” value ([6]; 1 μM)?
Answer: Its value is 11.2%.

Question: What about the “Percentage Bound” value ([6]; 10 μM) of the same compound?
Answer: The value was 85.8%.

Question: What about the “Percentage Free” value ([6]; 10 μM) of the same compound?
Answer: The value was 14.2%.

Question: What about the fraction unbound ([6]; plasma, monkey, summary of 1 and 10 μM) of the same compound?
Answer: The fraction unbound was 0.13.

Question: And the IC50 (CYP 2A6)?
Answer: The IC50 was 10 to 50 µM.

Question: What about the antitumor activity (MC38) of the same compound?
Answer: Its antitumor activity is “Significant antitumor activity”.

Question: And the “rank order of stability from most stable to least stable” value [7]?
Answer: Its value is “rat≈mouse>monkey≈human>>dog>>minipig”.

Question: What about the “sensitivity to SRA737” value [8] of the same compound?
Answer: The value was “sensitive”.

Question: What about the single agent efficacy (MDA-MB-231 model of TNBC) of the same compound?
Answer: The single agent efficacy was “single agent efficacy”.

Question: What about the antitumor activity [9] of the same compound?
Answer: Its antitumor activity is “Significant antitumor activity”.

Question: What about the antitumor activity [10] of the same compound?
Answer: Its antitumor activity is “Significant, dose-dependent antitumor activity”.

Question: And the AUC(0-t) [11, 17]?
Answer: Its AUC(0-t) is 6560 ng·h/mL.

Question: And the Cmax [11, 17]?
Answer: The Cmax was 515 ng/mL.

Question: What about the half-life [11, 17] of the same compound?
Answer: The half-life was 13.6 h.

Question: What about the AUC(0-t) [11, 18] of the same compound?
Answer: The AUC(0-t) was 45500 ng·h/mL.

Question: What about the Cmax [11, 18] of the same compound?
Answer: The Cmax was 2830 ng/mL.

Question: And the half-life [11, 18]?
Answer: Its half-life is 14.3 h.

Question: What about the AUC(0-t) [11, 19] of the same compound?
Answer: Its AUC(0-t) is 97000 ng·h/mL.

Question: And the Cmax [11, 19]?
Answer: The Cmax was 5340 ng/mL.

Question: What about the half-life [11, 19] of the same compound?
Answer: The half-life was 31.5 h.

Question: And the AUC(0-t) [11, 20]?
Answer: The AUC(0-t) was 6480 ng·h/mL.

Question: What about the Cmax [11, 20] of the same compound?
Answer: The Cmax was 622 ng/mL.

Question: And the half-life [11, 20]?
Answer: Its half-life is 9.25 h.

Question: What about the AUC(0-t) [11, 21] of the same compound?
Answer: Its AUC(0-t) is 22200 ng·h/mL.

Question: And the Cmax at 28 days [11, 21]?
Answer: Its Cmax at 28 days is 2070 ng/mL.

Question: And the half-life [11, 21]?
Answer: The half-life was 7.66 h.

Question: What about the toxicological findings ([11]; minipig pivotal study, dose-dependent, reversible on cessation) of the same compound?
Answer: Its toxicological findings is “bone marrow toxicity”.

Source: US20200397796A1, “METHODS OF TREATMENT OF CANCER COMPRISING CHK1 INHIBITORS” (SIERRA ONCOLOGY, INC., priority 2018, published 2020)
